Measurements reported in US7637980B2, “Method of increasing photosynthesis in plants comprising an exposure thereof to lipochitooligosaccharides and compositions therefor” (McGill University, priority 1999, dated 2009).

Tested on: corn (Zea mays cv Pioneer 3921)
Test: Photosynthesis of corn after LCO spray, greenhouse
Format: in vivo
Protocol: Seeds of rice (Oryza sativa cv Cypress), canola (Brassica napus cv Springfield), corn (Zea mays cv Pioneer 3921) and melon (Cucumis melo cv Nova) were surface sterilized with 2% sodium hypochlorite for 3-4 min, washed with several changes of sterile distilled water and planted in plastic pots (15 cm dia) containing promix (Premier Brands Inc., New Rochelle, N.Y., USA).
Concentrations of LCO (10^−6 M-10^−12 M) were made with distilled water containing 0.02% Tween 20. A control treatment, containing 0.02% Tween 20, but no LCO was also applied. Since the rates of growth and development differed among the plant species used in the experiments, spray treatment was conducted at different times after planting In general, the spray was applied when the plants were big enough to allow easy measurements of leaf photosynthetic rates. The following are the ages of the plants when the sprays were conducted: soybean 21 days after planting (DAP), corn 25 DAP, rice 45 DAP, melon (35 DAP) and canola 30 DAP. The plants were sprayed with LCO solutions until dripping. The sprays were applied with an atomizer (Nalgene, USA). Each plant required 2-3 mL of spray solution. Each treatment was replicated at least five times and organized on the green house bench in a randomized complete block design. Each experiment (with each crop species) was repeated at least twice.
Photosynthesis was recorded every 24 h using a Li-Cor 6400 portable photosynthesis system (Li-Cor Inc., Lincoln, Neb., USA) for 6 days. In the case of soybean the photosynthesis in the second nodal leaf from the top was recorded while in the other species used in the photosynthetic rate was measured for the top-most fully expanded leaf. Soybean plants were harvested after seven days of LCO treatment and dried at 80° C. for 48 h. Data were analyzed with the Statistical Analysis System (SAS Inc., N.C., USA). Percent increase in photosynthesis over the control was calculated.

Nod Bj V (C18:1, MeFeu)
leaf internal CO2 concentration: decreased | stomatal aperture: did not significantly alter | increase in photosynthesis (in general): 10-20%
